Reference: PMC4193996 (Journal of Experimental & Clinical Cancer Research : CR, 2014)

Target: T1, human recombinant M2 muscarinic receptor (Homo sapiens, UniProt P08172)
T1 sequence (P08172 1-466): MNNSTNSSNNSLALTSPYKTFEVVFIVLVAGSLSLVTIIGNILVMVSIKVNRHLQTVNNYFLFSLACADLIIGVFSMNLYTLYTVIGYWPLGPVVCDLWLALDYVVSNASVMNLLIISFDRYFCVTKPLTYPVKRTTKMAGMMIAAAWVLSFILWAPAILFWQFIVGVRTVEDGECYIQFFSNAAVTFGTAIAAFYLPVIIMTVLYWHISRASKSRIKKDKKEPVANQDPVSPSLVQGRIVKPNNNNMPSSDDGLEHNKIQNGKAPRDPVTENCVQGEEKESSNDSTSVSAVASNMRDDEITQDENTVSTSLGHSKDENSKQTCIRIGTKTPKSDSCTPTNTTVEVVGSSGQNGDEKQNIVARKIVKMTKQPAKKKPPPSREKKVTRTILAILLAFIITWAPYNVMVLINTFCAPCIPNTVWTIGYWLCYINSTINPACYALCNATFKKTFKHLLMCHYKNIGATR
Experiment: M2 muscarinic receptor inhibition assay
Type: binding
Settings: read-out: Muscarinic (M2) % inh @1 μM
Procedure: hEGR study and the M2 and the β2 receptor inhibition assay were performed as previously reported.
The new G-quadruplex ligands were designed in an attempt to obtain molecules with improved toxicological and on-target profiles, but maintaining the same favorable chemical and pharmacological features of the lead compound 1. With the aim of selecting the best variants, a step by step comparative analysis of their off- and on-target properties was performed. Initially the new molecules were tested for their ability to interact with and inhibit the human recombinant β2 adrenergic and M2 muscarinic receptors, and to reduce the hERG tail current in a patch clamp assay. […] Therefore, we might expect that the new ligands would impair cardiac functionality to a lesser extent than the lead molecule does.

inhibition at 1 µM: 99%
Structure (SMILES): CC(=O)NCC#Cc1ccc2c3cccc4c3c([n+](C)c2c1)-c1ccccc1N4C [Compound 8]
